Reference: patent US20220288022A1, “PHARMACEUTICAL COMPOSITION FOR TOPICAL USE THAT IS IN THE FORM OF A DISPERSED PHASE BASED ON AT LEAST ONE SHORT DIOL IN A CONTINUOUS FATTY PHASE AND COMPRISING AT LEAST ONE ANTI-INFLAMMATORY SUBSTANCE” (SOCIETE D'EXPLOITATION DE PRODUITS POUR LES INDUSTRIES …, priority 2019, published 2022)

Assay: Conductivity (σ) of the emulsions, characterization of the direction of the emulsion
Type: physicochemical
Settings: measured at 25° C., neat diol
Description: The conductivity (σ) of the emulsions (F1) to (F3) according to the invention and of the emulsions (F′1) to (F′3) is measured at 25° C., after a period of storage of said emulsions of one day in an insulated climatic chamber regulated at a temperature of 25° C., by means of an LF 196™ brand conductivity meter from the company WTW equipped with a TetraCon™ 96 electrode. If, for a given emulsion, (σ)≤0.5 μS.cm^−1, the emulsion is considered to be non-conductive and consequently the external phase is not the phase based on 1,2-propanediol but the oily phase. Indeed, the conductivity, measured at 25° C., of 1,2-propanediol is equal to 4400 μS.cm^−1. If, for a given emulsion, (σ)>0.5 μS.cm^−1, the emulsion is considered to be conductive and consequently the external phase is not the oily phase but the phase based on 1,2-propanediol or glycerol or PEG-400. This same measurement of the conductivity of the emulsions (F1) to (F3) according to the invention and of the comparative emulsions (F′1) to (F′3) is measured at 25° C. after three months at 25° C., and after three months at 45° C.

## CC(O)CO (stereo not shown) [1,2-propanediol]
  conductivity of 1,2-propanediol: 4400 μS.cm^−1
